Measured values from PubChem BioAssay (NCI).
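48-hour exposure; five concentrations; linearly interpolated endpoints. At the TGI there is no net growth.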

Experiments:
Experiment in all cases: DTP human tumour cell line panel, 48 h
786-0 renal = tested on: 786-0 renal
A498 renal = tested on: A498 renal
A549 NSCLC = tested on: A549 NSCLC
ACHN renal = tested on: ACHN renal
CAKI-1 renal = tested on: CAKI-1 renal
CCRF-CEM leukemia = tested on: CCRF-CEM leukemia
COLO 205 colon = tested on: COLO 205 colon
DU-145 prostate = tested on: DU-145 prostate
EKVX NSCLC = tested on: EKVX NSCLC
HCC-2998 colon = tested on: HCC-2998 colon
HCT-116 colon = tested on: HCT-116 colon
HCT-15 colon = tested on: HCT-15 colon
HL-60(TB) leukemia = tested on: HL-60(TB) leukemia
HOP-62 NSCLC = tested on: HOP-62 NSCLC
HS 578T breast = tested on: HS 578T breast
HT29 colon = tested on: HT29 colon
IGROV1 ovarian = tested on: IGROV1 ovarian
K-562 leukemia = tested on: K-562 leukemia
KM12 colon = tested on: KM12 colon
LOX IMVI melanoma = tested on: LOX IMVI melanoma
M14 melanoma = tested on: M14 melanoma
MALME-3M melanoma = tested on: MALME-3M melanoma
MCF7 breast = tested on: MCF7 breast
MDA-MB-231 breast = tested on: MDA-MB-231 breast
MDA-MB-435 = tested on: MDA-MB-435
MDA-N = tested on: MDA-N
MOLT-4 leukemia = tested on: MOLT-4 leukemia
NCI-H226 lung = tested on: NCI-H226 lung
NCI-H23 lung = tested on: NCI-H23 lung
NCI-H460 lung = tested on: NCI-H460 lung
NCI-H522 lung = tested on: NCI-H522 lung
NCI/ADR-RES ovarian = tested on: NCI/ADR-RES ovarian
OVCAR-3 ovarian = tested on: OVCAR-3 ovarian
OVCAR-5 ovarian = tested on: OVCAR-5 ovarian
OVCAR-8 ovarian = tested on: OVCAR-8 ovarian
PC-3 prostate = tested on: PC-3 prostate
RPMI-8226 leukemia = tested on: RPMI-8226 leukemia
RXF 393 renal = tested on: RXF 393 renal
SF-268 CNS = tested on: SF-268 CNS
SF-295 CNS = tested on: SF-295 CNS
SF-539 CNS = tested on: SF-539 CNS
SK-MEL-2 melanoma = tested on: SK-MEL-2 melanoma
SK-MEL-28 melanoma = tested on: SK-MEL-28 melanoma
SK-MEL-5 melanoma = tested on: SK-MEL-5 melanoma
SK-OV-3 ovarian = tested on: SK-OV-3 ovarian
SN12C renal = tested on: SN12C renal
SNB-19 CNS = tested on: SNB-19 CNS
SR leukemia = tested on: SR leukemia
SW-620 colon = tested on: SW-620 colon
T-47D breast = tested on: T-47D breast
TK-10 renal = tested on: TK-10 renal
U251 CNS = tested on: U251 CNS
UACC-257 melanoma = tested on: UACC-257 melanoma
UACC-62 melanoma = tested on: UACC-62 melanoma
BT-549 breast = tested on: BT-549 breast
HOP-92 NSCLC = tested on: HOP-92 NSCLC
OVCAR-4 ovarian = tested on: OVCAR-4 ovarian
SNB-75 CNS = tested on: SNB-75 CNS
UO-31 renal = tested on: UO-31 renal

SMILES: O=C(NC(C(F)(F)F)(C(F)(F)F)P(=O)(Cc1ccccc1)Cc1ccccc1)C(C(F)(F)F)C(F)(F)F
- TGI (786-0 renal): 34.4 µM
- TGI (A498 renal): 32.3 µM
- TGI (A549 NSCLC): 68.3 µM
- TGI (ACHN renal): 42.7 µM
- TGI (CAKI-1 renal): 97.1 µM
- TGI (CCRF-CEM leukemia): > 100 µM
- TGI (COLO 205 colon): 38 µM
- TGI (DU-145 prostate): > 100 µM
- TGI (EKVX NSCLC): 58.9 µM
- TGI (HCC-2998 colon): 49.8 µM
- TGI (HCT-116 colon): 33.1 µM
- TGI (HCT-15 colon): > 100 µM
- TGI (HL-60(TB) leukemia): 71.3 µM
- TGI (HOP-62 NSCLC): 41.6 µM
- TGI (HS 578T breast): > 100 µM
- TGI (HT29 colon): 45.4 µM
- TGI (IGROV1 ovarian): 36.1 µM
- TGI (K-562 leukemia): > 100 µM
- TGI (KM12 colon): 37.7 µM
- TGI (LOX IMVI melanoma): 35.2 µM
- TGI (M14 melanoma): 34.8 µM
- TGI (MALME-3M melanoma): 47.1 µM
- TGI (MCF7 breast): 31.8 µM
- TGI (MDA-MB-231 breast): 38.8 µM
- TGI (MDA-MB-435): 34.3 µM
- TGI (MDA-N): 43.6 µM
- TGI (MOLT-4 leukemia): 55.1 µM
- TGI (NCI-H226 lung): 32.4 µM
- TGI (NCI-H23 lung): 40.8 µM
- TGI (NCI-H460 lung): 78.3 µM
- TGI (NCI-H522 lung): 60.4 µM
- TGI (NCI/ADR-RES ovarian): 44 µM
- TGI (OVCAR-3 ovarian): > 100 µM
- TGI (OVCAR-5 ovarian): 41.8 µM
- TGI (OVCAR-8 ovarian): 46.5 µM
- TGI (PC-3 prostate): 49 µM
- TGI (RPMI-8226 leukemia): 72 µM
- TGI (RXF 393 renal): 47.6 µM
- TGI (SF-268 CNS): 59.4 µM
- TGI (SF-295 CNS): 44.6 µM
- TGI (SF-539 CNS): 43.6 µM
- TGI (SK-MEL-2 melanoma): 59.1 µM
- TGI (SK-MEL-28 melanoma): 53.1 µM
- TGI (SK-MEL-5 melanoma): 29.1 µM
- TGI (SK-OV-3 ovarian): > 100 µM
- TGI (SN12C renal): 38.4 µM
- TGI (SNB-19 CNS): 59.4 µM
- TGI (SR leukemia): 80.6 µM
- TGI (SW-620 colon): 92.7 µM
- TGI (T-47D breast): 95.1 µM
- TGI (TK-10 renal): 39.1 µM
- TGI (U251 CNS): 41.5 µM
- TGI (UACC-257 melanoma): 46.5 µM
- TGI (UACC-62 melanoma): 62.4 µM

SMILES: O=c1/c(=N\Nc2ccccc2)c2cccc3ccc4cccc1c4c32
- TGI (786-0 renal): > 100 µM
- TGI (A498 renal): > 100 µM
- TGI (A549 NSCLC): > 100 µM
- TGI (ACHN renal): 88.6 µM
- TGI (BT-549 breast): > 100 µM
- TGI (CAKI-1 renal): > 100 µM
- TGI (CCRF-CEM leukemia): > 100 µM
- TGI (COLO 205 colon): > 100 µM
- TGI (DU-145 prostate): > 100 µM
- TGI (EKVX NSCLC): > 100 µM
- TGI (HCT-116 colon): > 100 µM
- TGI (HCT-15 colon): > 100 µM
- TGI (HOP-62 NSCLC): > 100 µM
- TGI (HOP-92 NSCLC): > 100 µM
- TGI (HS 578T breast): > 100 µM
- TGI (HT29 colon): > 100 µM
- TGI (IGROV1 ovarian): > 100 µM
- TGI (K-562 leukemia): > 100 µM
- TGI (KM12 colon): > 100 µM
- TGI (LOX IMVI melanoma): > 100 µM
- TGI (M14 melanoma): > 100 µM
- TGI (MALME-3M melanoma): > 100 µM
- TGI (MDA-MB-231 breast): > 100 µM
- TGI (MDA-MB-435): > 100 µM
- TGI (MDA-N): > 100 µM
- TGI (MOLT-4 leukemia): > 100 µM
- TGI (NCI-H226 lung): > 100 µM
- TGI (NCI-H23 lung): > 100 µM
- TGI (NCI-H522 lung): > 100 µM
- TGI (NCI/ADR-RES ovarian): > 100 µM
- TGI (OVCAR-3 ovarian): > 100 µM
- TGI (OVCAR-4 ovarian): > 100 µM
- TGI (OVCAR-5 ovarian): > 100 µM
- TGI (OVCAR-8 ovarian): > 100 µM
- TGI (PC-3 prostate): > 100 µM
- TGI (RPMI-8226 leukemia): > 100 µM
- TGI (RXF 393 renal): > 100 µM
- TGI (SF-268 CNS): > 100 µM
- TGI (SF-295 CNS): > 100 µM
- TGI (SK-MEL-2 melanoma): > 100 µM
- TGI (SK-MEL-28 melanoma): > 100 µM
- TGI (SK-MEL-5 melanoma): > 100 µM
- TGI (SK-OV-3 ovarian): > 100 µM
- TGI (SN12C renal): > 100 µM
- TGI (SNB-19 CNS): > 100 µM
- TGI (SNB-75 CNS): > 100 µM
- TGI (SR leukemia): > 100 µM
- TGI (SW-620 colon): > 100 µM
- TGI (T-47D breast): > 100 µM
- TGI (TK-10 renal): > 100 µM
- TGI (U251 CNS): > 100 µM
- TGI (UACC-257 melanoma): > 100 µM
- TGI (UACC-62 melanoma): > 100 µM
- TGI (UO-31 renal): > 100 µM
